The target in experiment [1] is Mast/stem cell growth factor receptor Kit (Homo sapiens, UniProt P10721). The experiment in a line: Selectivity interaction (Kinase panel (Eurofins)) EUB0001564a KIT. As to conditions: at 1 µM.
Experiment [2] concerns the target Hepatocyte growth factor-like protein (Homo sapiens) (UniProt P26927). The experiment in a line: Selectivity interaction (KinomeScan (DiscoverX)) EUB0000595a MST1. The conditions noted are these: at 10 µM.
Experiment [3] deals with Ephrin type-A receptor 7 (Homo sapiens) (UniProt Q15375). As to conditions: at 10 µM.
The target in experiment [4] is Mitogen-activated protein kinase kinase kinase 11 (Homo sapiens) (UniProt Q16584). Briefly: Selectivity interaction (KinomeScan (DiscoverX)) EUB0000666a MAP3K11. The conditions noted are these: at 10 µM.
The target in experiment [5] is Mitogen-activated protein kinase 8 (Homo sapiens, UniProt P45983). The experiment in a line: Selectivity interaction (KinomeScan (DiscoverX)) EUB0000607a MAPK8. The conditions noted are these: at 10 µM.
A further experiment addresses SRSF protein kinase 1 (Homo sapiens, UniProt Q96SB4). Briefly: Selectivity interaction (ActivX KiNativ screen (kinase selectivity in THP-1 cell lysates)) EUB0000639a SRPK1. The experiment is classed as subcellular. The conditions noted are these: lysate.
Experiment [6] addresses TRAF2 and NCK-interacting protein kinase (Homo sapiens) (UniProt Q9UKE5). Briefly: Selectivity interaction (ActivX KiNativ screen (kinase selectivity in THP-1 cell lysates)) EUB0000639a TNIK. The experiment is classed as subcellular. The conditions noted are these: lysate.
Experiment [7] concerns the target T1, Serine/threonine-protein kinase TBK1 (Homo sapiens) (UniProt Q9UHD2).
T1 sequence (whole entry): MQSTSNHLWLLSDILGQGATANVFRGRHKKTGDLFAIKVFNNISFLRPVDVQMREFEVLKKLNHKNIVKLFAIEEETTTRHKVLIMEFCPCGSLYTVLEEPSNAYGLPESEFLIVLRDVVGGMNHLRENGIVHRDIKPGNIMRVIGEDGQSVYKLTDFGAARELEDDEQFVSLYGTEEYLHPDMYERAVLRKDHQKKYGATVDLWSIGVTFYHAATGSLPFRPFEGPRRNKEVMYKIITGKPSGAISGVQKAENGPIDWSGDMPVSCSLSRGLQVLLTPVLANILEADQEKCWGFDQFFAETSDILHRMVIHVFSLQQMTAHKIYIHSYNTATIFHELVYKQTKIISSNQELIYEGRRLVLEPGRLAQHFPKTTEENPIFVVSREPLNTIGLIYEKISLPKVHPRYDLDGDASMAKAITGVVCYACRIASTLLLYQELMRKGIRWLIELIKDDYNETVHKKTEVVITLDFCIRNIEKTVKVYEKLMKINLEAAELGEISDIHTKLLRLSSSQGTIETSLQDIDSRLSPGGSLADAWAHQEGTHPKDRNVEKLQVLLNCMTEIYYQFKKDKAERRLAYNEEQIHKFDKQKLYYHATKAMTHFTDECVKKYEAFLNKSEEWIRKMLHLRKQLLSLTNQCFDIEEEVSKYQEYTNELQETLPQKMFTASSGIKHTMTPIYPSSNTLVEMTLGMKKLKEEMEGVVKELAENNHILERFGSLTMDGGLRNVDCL
Briefly: Selectivity interaction (ActivX KiNativ screen (kinase selectivity in THP-1 cell lysates)) EUB0000639a TBK1. In kind it is subcellular. The conditions noted are these: lysate, at 5 µM.

For experiment [8], the target named is Mitogen-activated protein kinase 1 (Homo sapiens, UniProt P28482). Briefly: Selectivity interaction (KinomeScan (DiscoverX)) EUB0000045b MAPK1.
For experiment [9], the system named is Tyrosine-protein kinase ABL1 (Homo sapiens), P00519 [H396P]. The experiment in a line: Selectivity interaction (KinomeScan (DiscoverX)) EUB0001049a ABL1. As to conditions: at 1 µM.
The target in experiment [10] is Tyrosine-protein kinase JAK2 (Homo sapiens, UniProt O60674). Briefly: Selectivity interaction (Kinase panel (Carna Biosciences)) EUB0001542aTs JAK2. The conditions noted are these: at 1 µM.
The target in experiment [11] is Bromodomain testis-specific protein (Homo sapiens) (UniProt Q58F21). Briefly: Selectivity interaction (Bromodomain panel (DSF asssay)) EUB0000270b BRDT.
The target in experiment [12] is Proto-oncogene tyrosine-protein kinase ROS (Homo sapiens) (UniProt P08922). The experiment in a line: Selectivity interaction (KinomeScan (DiscoverX)) EUB0000618a ROS1. The conditions noted are these: at 10 µM.
Experiment [13] concerns the target T2, Histone-arginine methyltransferase CARM1 (Homo sapiens) (UniProt Q86X55).
T2 sequence (whole entry): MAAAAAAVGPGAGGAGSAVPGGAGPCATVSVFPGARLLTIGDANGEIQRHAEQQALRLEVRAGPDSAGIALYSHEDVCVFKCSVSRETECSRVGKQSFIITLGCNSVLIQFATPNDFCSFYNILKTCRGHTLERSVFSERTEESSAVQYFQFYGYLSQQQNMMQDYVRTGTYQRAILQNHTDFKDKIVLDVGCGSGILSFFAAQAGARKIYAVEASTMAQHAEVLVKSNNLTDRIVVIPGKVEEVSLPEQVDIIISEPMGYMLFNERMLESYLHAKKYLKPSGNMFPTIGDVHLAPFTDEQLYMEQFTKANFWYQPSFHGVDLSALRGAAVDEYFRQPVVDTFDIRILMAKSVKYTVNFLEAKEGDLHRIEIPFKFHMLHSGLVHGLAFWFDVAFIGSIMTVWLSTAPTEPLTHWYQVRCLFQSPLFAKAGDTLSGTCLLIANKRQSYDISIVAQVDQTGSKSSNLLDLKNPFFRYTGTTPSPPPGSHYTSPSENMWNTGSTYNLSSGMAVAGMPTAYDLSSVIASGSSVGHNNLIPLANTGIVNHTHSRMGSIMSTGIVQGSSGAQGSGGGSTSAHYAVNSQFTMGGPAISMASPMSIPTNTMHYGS
The experiment in a line: Selectivity interaction (Methyltransferase screen (radiometric assays, panel of 8 PRMTs, 21 protein lysine methyltransferases, 3 DNA methyltransferases, and one RNA methyltransferase)) EUB0000271b CARM1.

Experiment [14] has as its target 5-hydroxytryptamine receptor 1B (Homo sapiens) (UniProt P28222). The experiment in a line: Selectivity interaction (Panel of non-epigenetic targets (kinases, GPCRs, ion channels, and transporters, Eurofins) ) EUB0000271b HTR1B. As to conditions: at 1 µM.
Experiment [15] deals with Wee1-like protein kinase (Homo sapiens) (UniProt P30291). Briefly: Selectivity interaction (KinomeScan (DiscoverX)) EUB0001079a WEE1. The conditions noted are these: at 1 µM.
Sequence of Wee1-like protein kinase (Homo sapiens) (P30291 whole entry, looked up): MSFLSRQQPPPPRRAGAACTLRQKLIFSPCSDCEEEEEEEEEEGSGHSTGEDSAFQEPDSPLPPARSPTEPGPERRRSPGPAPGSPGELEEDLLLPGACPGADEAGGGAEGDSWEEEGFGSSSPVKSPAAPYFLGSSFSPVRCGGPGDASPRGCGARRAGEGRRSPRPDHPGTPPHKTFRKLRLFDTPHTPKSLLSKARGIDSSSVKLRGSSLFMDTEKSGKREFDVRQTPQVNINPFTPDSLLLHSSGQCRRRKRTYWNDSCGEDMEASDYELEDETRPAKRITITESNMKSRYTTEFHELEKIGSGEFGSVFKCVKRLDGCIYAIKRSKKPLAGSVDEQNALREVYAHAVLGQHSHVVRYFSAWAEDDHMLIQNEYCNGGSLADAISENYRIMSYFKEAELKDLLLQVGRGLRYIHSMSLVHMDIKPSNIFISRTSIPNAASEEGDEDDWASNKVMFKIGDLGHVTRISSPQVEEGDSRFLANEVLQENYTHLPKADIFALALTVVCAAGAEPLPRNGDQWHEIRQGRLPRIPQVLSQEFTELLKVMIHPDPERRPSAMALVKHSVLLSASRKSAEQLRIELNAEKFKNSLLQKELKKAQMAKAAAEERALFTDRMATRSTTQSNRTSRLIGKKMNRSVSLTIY

Sequence of TRAF2 and NCK-interacting protein kinase (Homo sapiens) (Q9UKE5 whole entry, looked up): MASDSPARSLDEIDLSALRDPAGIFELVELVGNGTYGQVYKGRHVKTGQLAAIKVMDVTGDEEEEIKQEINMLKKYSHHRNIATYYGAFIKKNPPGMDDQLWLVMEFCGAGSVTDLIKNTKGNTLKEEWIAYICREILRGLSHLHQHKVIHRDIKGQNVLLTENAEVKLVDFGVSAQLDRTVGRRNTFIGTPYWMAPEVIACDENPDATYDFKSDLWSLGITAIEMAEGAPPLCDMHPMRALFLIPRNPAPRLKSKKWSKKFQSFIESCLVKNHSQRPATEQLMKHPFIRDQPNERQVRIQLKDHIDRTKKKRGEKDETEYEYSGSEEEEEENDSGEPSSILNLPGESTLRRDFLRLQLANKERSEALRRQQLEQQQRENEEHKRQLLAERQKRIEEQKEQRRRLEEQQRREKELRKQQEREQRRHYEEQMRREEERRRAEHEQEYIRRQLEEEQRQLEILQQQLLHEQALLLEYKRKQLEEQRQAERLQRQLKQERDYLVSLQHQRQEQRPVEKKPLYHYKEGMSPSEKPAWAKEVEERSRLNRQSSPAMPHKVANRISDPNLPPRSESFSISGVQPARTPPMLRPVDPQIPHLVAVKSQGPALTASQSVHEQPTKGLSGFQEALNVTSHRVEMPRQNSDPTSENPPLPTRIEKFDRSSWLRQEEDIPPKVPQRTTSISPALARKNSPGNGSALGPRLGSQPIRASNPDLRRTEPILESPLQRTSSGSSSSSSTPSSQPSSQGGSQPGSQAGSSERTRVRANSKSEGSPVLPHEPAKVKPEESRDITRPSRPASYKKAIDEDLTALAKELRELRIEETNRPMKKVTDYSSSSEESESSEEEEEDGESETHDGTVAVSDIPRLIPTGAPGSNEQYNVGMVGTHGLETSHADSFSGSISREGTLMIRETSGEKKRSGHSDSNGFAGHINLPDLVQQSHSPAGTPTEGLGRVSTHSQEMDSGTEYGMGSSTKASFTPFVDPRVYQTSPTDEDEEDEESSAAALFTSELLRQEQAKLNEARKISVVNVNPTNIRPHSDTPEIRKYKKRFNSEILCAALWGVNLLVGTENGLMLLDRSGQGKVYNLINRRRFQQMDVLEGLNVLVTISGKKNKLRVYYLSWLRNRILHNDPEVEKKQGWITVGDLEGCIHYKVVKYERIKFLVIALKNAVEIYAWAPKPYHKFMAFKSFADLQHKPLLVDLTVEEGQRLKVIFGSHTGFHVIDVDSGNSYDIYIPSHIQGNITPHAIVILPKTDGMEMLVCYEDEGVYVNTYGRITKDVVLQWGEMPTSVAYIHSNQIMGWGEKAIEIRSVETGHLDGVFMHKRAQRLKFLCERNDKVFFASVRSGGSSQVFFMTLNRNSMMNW
Sequence of SRSF protein kinase 1 (Q96SB4 whole entry): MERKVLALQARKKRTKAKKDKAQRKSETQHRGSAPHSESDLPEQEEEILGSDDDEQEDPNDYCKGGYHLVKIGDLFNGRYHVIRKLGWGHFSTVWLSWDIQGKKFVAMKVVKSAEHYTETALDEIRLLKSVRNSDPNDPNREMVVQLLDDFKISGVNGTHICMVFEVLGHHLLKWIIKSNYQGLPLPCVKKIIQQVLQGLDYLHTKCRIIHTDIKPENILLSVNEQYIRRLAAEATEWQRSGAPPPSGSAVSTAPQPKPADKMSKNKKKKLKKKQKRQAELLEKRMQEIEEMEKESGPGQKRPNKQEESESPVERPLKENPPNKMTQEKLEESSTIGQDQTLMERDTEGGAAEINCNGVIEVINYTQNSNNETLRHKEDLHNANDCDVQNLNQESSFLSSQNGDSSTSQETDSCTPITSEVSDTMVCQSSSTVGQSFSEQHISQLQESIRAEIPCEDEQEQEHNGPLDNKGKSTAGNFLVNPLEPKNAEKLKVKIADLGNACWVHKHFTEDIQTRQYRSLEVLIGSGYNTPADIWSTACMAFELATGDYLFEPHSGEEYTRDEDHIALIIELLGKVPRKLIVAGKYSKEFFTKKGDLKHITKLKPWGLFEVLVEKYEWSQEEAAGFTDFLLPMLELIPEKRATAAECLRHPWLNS
Sequence of Mitogen-activated protein kinase 1 (P28482 whole entry): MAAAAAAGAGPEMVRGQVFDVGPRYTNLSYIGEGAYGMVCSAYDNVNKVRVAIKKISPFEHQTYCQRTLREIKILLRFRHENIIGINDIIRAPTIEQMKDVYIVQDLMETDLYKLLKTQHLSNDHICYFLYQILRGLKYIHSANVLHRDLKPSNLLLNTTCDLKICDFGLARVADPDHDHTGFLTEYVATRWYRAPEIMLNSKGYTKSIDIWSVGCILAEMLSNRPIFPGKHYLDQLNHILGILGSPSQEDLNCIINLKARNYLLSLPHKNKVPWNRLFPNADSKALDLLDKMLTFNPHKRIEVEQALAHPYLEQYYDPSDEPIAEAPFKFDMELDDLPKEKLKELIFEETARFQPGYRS
Sequence of Mitogen-activated protein kinase 8 (P45983 whole entry): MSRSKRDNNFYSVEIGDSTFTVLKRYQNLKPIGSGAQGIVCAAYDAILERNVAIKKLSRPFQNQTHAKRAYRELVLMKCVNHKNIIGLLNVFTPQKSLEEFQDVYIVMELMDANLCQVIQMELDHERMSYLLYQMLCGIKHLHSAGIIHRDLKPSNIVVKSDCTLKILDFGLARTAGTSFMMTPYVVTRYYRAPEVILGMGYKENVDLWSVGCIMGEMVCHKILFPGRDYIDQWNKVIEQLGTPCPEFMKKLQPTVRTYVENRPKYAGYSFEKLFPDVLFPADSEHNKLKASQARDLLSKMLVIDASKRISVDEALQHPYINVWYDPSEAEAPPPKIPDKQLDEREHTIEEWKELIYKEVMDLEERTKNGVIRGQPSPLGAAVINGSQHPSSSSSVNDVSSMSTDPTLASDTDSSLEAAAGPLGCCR
Sequence of 5-hydroxytryptamine receptor 1B (Homo sapiens) (P28222 whole entry): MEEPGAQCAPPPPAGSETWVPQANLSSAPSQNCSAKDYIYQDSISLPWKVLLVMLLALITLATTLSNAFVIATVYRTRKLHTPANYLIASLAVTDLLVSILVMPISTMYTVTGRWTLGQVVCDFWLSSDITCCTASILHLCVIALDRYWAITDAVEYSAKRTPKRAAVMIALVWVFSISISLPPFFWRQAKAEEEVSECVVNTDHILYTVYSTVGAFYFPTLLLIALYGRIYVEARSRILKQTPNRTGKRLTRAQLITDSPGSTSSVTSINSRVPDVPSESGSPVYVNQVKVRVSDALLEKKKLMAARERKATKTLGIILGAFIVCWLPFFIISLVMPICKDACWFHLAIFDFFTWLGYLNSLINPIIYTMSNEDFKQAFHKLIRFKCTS
Sequence of Ephrin type-A receptor 7 (Homo sapiens) (Q15375 28-998 limits assumed): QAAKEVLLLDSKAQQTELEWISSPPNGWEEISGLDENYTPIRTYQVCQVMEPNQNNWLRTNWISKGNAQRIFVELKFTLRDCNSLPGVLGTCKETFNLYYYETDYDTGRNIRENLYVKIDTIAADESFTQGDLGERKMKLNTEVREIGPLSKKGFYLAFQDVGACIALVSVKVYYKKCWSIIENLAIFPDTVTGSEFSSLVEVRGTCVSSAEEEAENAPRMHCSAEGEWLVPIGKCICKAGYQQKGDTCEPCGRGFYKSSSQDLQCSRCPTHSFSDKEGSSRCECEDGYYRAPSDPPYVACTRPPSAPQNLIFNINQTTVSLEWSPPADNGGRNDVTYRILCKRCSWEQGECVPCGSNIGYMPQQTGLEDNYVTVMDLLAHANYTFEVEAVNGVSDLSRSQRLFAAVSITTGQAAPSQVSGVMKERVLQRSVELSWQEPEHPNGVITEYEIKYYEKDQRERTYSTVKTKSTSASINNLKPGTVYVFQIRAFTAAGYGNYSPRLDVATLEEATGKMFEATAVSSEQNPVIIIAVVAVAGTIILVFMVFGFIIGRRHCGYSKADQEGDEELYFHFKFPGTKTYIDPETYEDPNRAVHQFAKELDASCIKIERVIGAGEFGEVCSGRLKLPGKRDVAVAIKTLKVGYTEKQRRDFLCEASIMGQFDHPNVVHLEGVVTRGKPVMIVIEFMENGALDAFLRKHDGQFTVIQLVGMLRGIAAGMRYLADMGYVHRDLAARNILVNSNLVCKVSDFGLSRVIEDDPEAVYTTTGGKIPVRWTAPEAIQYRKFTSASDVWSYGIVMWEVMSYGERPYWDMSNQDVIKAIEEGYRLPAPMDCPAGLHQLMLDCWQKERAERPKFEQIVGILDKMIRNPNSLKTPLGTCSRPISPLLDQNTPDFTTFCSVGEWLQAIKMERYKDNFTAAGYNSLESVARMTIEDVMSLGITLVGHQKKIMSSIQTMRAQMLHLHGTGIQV

Consider `CC[C@@H](Nc1c(C#N)c(-c2ccc(-c3cccc(C)c3F)cc2)nc2cnccc12)C(=O)O` [BAY-091], for which, in experiment [1], the % of inhibition was found to be 22.3%.

Take `COCC(=O)NC/C=C/c1ccc2ncnc(Nc3ccc(Oc4ccc(C)nc4)c(C)c3)c2c1` [CP-724714]: the % of control in experiment [2] was 87%.

Molecule `CCN(CC)CCCCNc1ncc2cc(-c3cc(OC)cc(OC)c3)c(NC(=O)NC(C)(C)C)nc2n1` came in with a % of control in experiment [3] of 100%.

`O=C(NOC[C@H](O)CO)c1ccc(F)c(F)c1Nc1ccc(I)cc1F` showed a % of control in [4] of 100%.

In experiment [5], `CNC(=O)Nc1ccc(-c2nc(N3CC4CCC(C3)O4)c3cnn(C4CCC5(CC4)OCCO5)c3n2)cc1` displayed a % of control of 91%.

As to `CC[C@@H]1[C@H](F)C(=O)N[C@@H]1COc1nccc2cc(C(N)=O)c(OC)cc12` [ZIMLOVISERTIB], the % of inhibition was 6.9% on SRSF protein kinase 1 (at 0.01 µM); -23% on SRSF protein kinase 1 (at 0.04 µM); -5.5% on SRSF protein kinase 1 (at 0.2 µM); 11.7% on SRSF protein kinase 1 (at 1 µM); 19.9% on SRSF protein kinase 1 (at 5 µM); -2.8% in experiment [6] (at 0.01 µM). The % of inhibition in experiment [6] (at 0.04 µM) was -2.7%; in [6] (at 0.2 µM), -20.6%; in [6] (at 1 µM), -28.3%; in experiment [6] (at 5 µM) it was 16.1%; in [7] it was 23.9%.

In the case of `C=CC(=O)Nc1cc(-n2c(=O)ccc3cnc4ccc(-c5ccc(NS(C)(=O)=O)cc5)cc4c32)ccc1C`, the % of control was found to be 94% in experiment [8] (at 1 µM) and 100% in experiment [8] (at 10 µM).

Turning to `COc1cc(Nc2nc(C)cc(-c3cnn4nc(OC)ccc34)n2)cc(C(F)(F)F)c1`, the % of control in [9] turned out to be 73%.

`Cn1cc(Nc2nccc(N3CC4CCC(C3)N4C(=O)[C@@H]3CC3(F)F)n2)cn1`: the % of inhibition in experiment [10] worked out at 94%.

For the molecule `Cc1cc(CN)cc(C)c1-c1ncn(C)c1-c1cncn1C`, in experiment [11], the dTM was -1.8 K.

On to `O[C@H]1CC[C@H](Nc2ncc3nc(Nc4c(F)cc(F)cc4F)n([C@H]4CCOC4)c3n2)CC1`, for which the % of control in [12] came to 95%.

For `Cc1cc(C)cc([C@@H]2c3cc(C)ccc3NC(=O)CN2C(=O)c2ccc(Br)s2)c1`, the % of activity in experiment [13] (at 1 µM) amounted to 98%; in [13] (at 10 µM), 96.3%. For the same molecule, in experiment [14], the % of inhibition worked out at 6%.

On to `Nc1cnc(N2CCc3cc(S(=O)(=O)Nc4c(F)cc(Cl)cc4F)cc(N4CCCC4=O)c32)nc1` [TP-020n], for which the % of control in [15] came to 72%.
